Assay results from patent publication US20090130707A1, “Methods of reducing the inhibitory effect of a redox active metal ion on the enzymatic hydrolysis of cellulosic material” (priority 2007, published 2009).
pKi: −log10 of the molar value. Entries after “also recorded” stand apart in the source; their conditions may differ.

Tests used:
[1] = tested on: Cellulolytic Enzyme Composition #2; experiment: mini-scale PCS hydrolysis by Cellulolytic Enzyme Composition #2; assay type: biochemical, Trichoderma reesei
Description: Corn stover was pretreated at the U.S. Department of Energy National Renewable Energy Laboratory (NREL), […], Colo., USA, using dilute sulfuric acid. The following conditions were used for the pretreatment: 1.4 wt % sulfuric acid at 195° C. for 4.5 minutes. According to limit digestion with excess cellulase enzymes, the water-insoluble solids in the pretreated corn stover (PCS) contained 59.5% cellulose. Prior to use, the PCS was washed with a large volume of deionized water until soluble acid and sugars were removed. The dry weight of the water-washed PCS was 19.16%.
The effect of various salts (FeSO4, FeCl2, NaCl, Na2SO4, MnSO4, MnCl2) was determined in the hydrolysis of PCS by Cellulolytic Enzyme Composition #2. […] Cellulolytic Enzyme Composition #2 was added at 0.25 g per liter. Reactions without the addition of the salt served as controls. The capped tubes were incubated at 50° C. in an INNOVA® 4080 incubator shaker (New Brunswick Scientific Co., Inc., Edison, N.J., USA) at 150 rpm.
Aliquots of the suspensions, sampled over time, were filtered by centrifugation using a 0.45 μm MULTISCREEN® HV membrane (Millipore, Billerica, Mass., USA) at 2000 rpm for 15 minutes using a SORVALL® RT7 centrifuge (Thermo Fisher Scientific, Waltham, Mass., USA). When not used immediately, the filtered sugary aliquots were frozen at −20° C. Sugar concentrations of the samples diluted in 0.005 M H2SO4 were measured after elution from a 4.6×250 mm AMINEX® HPX-87H column (Bio-Rad, Hercules, Calif., USA) by 0.005 M H2SO4 at a flow rate of 0.4 ml/minute at 65° C. with quantitation by integration of glucose and cellobiose using refractive index detection (CHEMSTATION®, AGILENT® 1100 HPLC, Agilent Technologies, Santa Clara, Calif., USA) calibrated with standards of glucose and cellobiose. The resultant equivalents were used to calculate the percentage of cellulose conversion for each reaction.
The degree of cellulose conversion to glucose plus cellobiose (% conversion) was calculated using the following equation:
% Conversion=(glucose+cellobiose×1.053)(mg/ml)×100×162/cellulose(mg/ml)×180)=(glucose+cellobiose×1.053)(mg/ml)×100/(cellulose(mg/ml)×1.111)
In this equation the factor 1.111 reflects the weight gain in converting cellulose to glucose, and the factor 1.053 reflects the weight gain in converting cellobiose to glucose. Cellulose in PCS was determined by a limit digest of PCS to release glucose and cellobiose.

[2] = tested on: Cellulolytic Enzyme Composition #1; experiment: mini-plate-scale AVICEL hydrolysis by Cellulolytic Enzyme Composition #1; assay type: biochemical, Trichoderma reesei
[3] = tested on: Cellulolytic Enzyme Composition #1; experiment: mini-plate-scale PASC hydrolysis by Cellulolytic Enzyme Composition #1; assay type: biochemical, Trichoderma reesei
[4] = target: T1, Trichoderma reesei Cel7B endoglucanase I (Trichoderma reesei, UniProt P07981); experiment: PASC hydrolysis by Cel7B endoglucanase I; assay type: biochemical; conditions: 10 mM FeSO4; 2 g PASC and 40 mg enzyme per liter (FIG. 20C)
T1 construct: made in house; host or cells: Aspergillus oryzae JaL250

[5] = target: T2, Trichoderma reesei Cel5A endoglucanase II (Trichoderma reesei, UniProt P07982); experiment: PASC hydrolysis by Cel5A endoglucanase II; assay type: biochemical; conditions: 10 mM FeSO4; 2 g PASC and 40 mg enzyme per liter (FIG. 20D)
T2 construct: made in house; host or cells: Aspergillus oryzae JaL250 (transformant JaL250AlLo27)
T2 sequence (P07982 22-418): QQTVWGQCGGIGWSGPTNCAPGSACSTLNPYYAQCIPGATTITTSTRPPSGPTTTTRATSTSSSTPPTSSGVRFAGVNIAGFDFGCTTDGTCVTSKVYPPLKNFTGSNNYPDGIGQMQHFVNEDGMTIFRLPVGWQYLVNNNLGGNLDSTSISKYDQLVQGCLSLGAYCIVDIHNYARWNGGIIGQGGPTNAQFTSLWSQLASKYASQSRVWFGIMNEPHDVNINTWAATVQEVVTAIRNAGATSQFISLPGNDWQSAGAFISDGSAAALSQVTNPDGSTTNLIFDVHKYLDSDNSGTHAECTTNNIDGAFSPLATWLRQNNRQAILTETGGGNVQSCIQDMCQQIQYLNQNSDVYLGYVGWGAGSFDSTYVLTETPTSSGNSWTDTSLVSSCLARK

T1 sequence (P07981 23-459): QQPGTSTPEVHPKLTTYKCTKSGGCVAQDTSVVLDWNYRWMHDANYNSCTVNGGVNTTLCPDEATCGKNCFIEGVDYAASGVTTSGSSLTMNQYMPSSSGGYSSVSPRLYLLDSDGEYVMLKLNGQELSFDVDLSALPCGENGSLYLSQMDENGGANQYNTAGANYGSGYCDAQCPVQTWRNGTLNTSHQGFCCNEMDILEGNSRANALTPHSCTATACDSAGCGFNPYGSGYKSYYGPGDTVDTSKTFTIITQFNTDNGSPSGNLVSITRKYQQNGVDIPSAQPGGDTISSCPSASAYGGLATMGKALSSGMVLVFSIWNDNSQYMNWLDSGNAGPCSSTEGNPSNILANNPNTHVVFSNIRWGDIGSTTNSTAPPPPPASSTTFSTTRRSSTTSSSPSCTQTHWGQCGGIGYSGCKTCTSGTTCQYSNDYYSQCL

Substance: Ferrous sulfate [FeSO4]
- Effect on PCS hydrolysis ([1]; 10 mM salt, 43.4 g PCS and 0.25 g enzyme per liter, 50 mM sodium acetate pH 5, 50° C.): significant inhibition; also recorded: significantly inhibited
- Effect on the cellulases ([1]; 0.1 and 1 mM): did not significantly affect
- Effect on hydrolysis over concentration range ([2]; 0.1 to 10 mM): concentration-dependent inhibition
- Type of inhibition (double-reciprocal plots) ([2]; 0.5 to 4 mM FeSO4, 0.6 to 4 g AVICEL per liter): mix-type inhibition
- Concentration dependence of inhibition ([3]; 1 mM to 10 mM FeSO4, PASC (FIG. 19C)): increasingly inhibitory
- Type of inhibition (double-reciprocal plots) ([3]; 0.1 to 10 mM FeSO4, 0.6 to 4 g PASC, 0.01 g enzyme per liter): mix-type inhibition
- pKi ([3]; on PASC, 2 g PASC and 0.05 g enzyme per liter, read-out: Ki (x-intercept of Dixon plot)): ~1.85
- Effect on enzyme [4]: significantly inhibited
- Effect on enzyme [5]: significantly inhibited
